Literature values, collected in patent US20140249101A1, “METHODS FOR TREATING HEPATITIS C VIRUS INFECTION” (Gilead Pharmasset LLC, priority 2013, published 2014).
Entries after “also recorded” stand apart in the source; their conditions may differ.

Tested on: hepatitis C virus (HCV)
Settings: ribavirin alone

Structure (SMILES): NC(=O)c1ncn([C@@H]2O[C@H](CO)[C@@H](O)[C@H]2O)n1 [ribavirin, 1-β-d-ribofuranosyl-1H-1,2,4-triazole-3-carboxamide]
- sustained virologic response: did not produce any sustained virologic response; also recorded: has not been shown to produce SVR
- effect on HCV RNA levels (during or after therapy): did not reduce HCV RNA levels during or after therapy; also recorded: little or no effect on HCV RNA levels
- effect on alanine aminotransferase (ALT) levels (during the course of treatment, some patients with CHC): can normalize alanine aminotransferase (ALT) levels transiently; also recorded: normalized alanine aminotransferase (ALT) levels transiently
